Laboratory results taken from patent US20060142374A1, “Crystal for oral solid drug and oral solid drug for dysuria treatment containing the same” (KISSEI PHARMACEUTICAL CO., LTD., priority 2002, published 2006).

Experiments:
Type in all cases: physicochemical
[1] = Stability to light on preservation; conditions: content of active ingredient decreases depending on preserved condition with time
[2] = Stability test (appearance by naked eye, purity by liquid chromatography after storage); conditions: for Stability in respect of purity and appearance: summary of storage conditions 1-4
Description: Appearance and purity of each crystal obtained in Examples 1-3 and an amorphous obtained by freeze-drying a solution of KMD-3213 in dioxane were determined after allowing to stand under following conditions. As for appearance, it was determined by color and properties with the naked eye. Purity was determined by integral percentage method with liquid chromatography.
Condition 1: Allowing to stand at 40° C. in the constant temperature device for 28 days
Condition 2: Allowing to stand at 60° C. in the constant temperature device for 28 days
Condition 3: Allowing to stand at 80° C. in the constant temperature device for 25 days
Condition 4: Allowing to stand at 40° C. and relative humidity 75% in the constant temperature device for 28 days
The Liquid Chromatography Condition:
Detector: ultraviolet absorption spectrophotometer (wave length: 225 nm)
Column: Intertsil ODS-3 (GL Science, 5 μm, 4.6 mm×25 cm)
Column temperature: about 25° C.
Mobile Phase: To 3.9 g of sodium dihydrogen phosphate was added 2.5 mL of diluted phosphoric acid solution (1→20) accurately, and water was added to make 1000 mL of a solution accurately. A 5:2 mixed solution of the resulting solution and acetonitrile.

[3] = Moisture absorption test (weight change after storage); conditions: for Moisture absorption (hygroscopicity): summary, compared with the amorphous
Description: In the same manner as that of Test Example 1, the crystals obtained in Examples 1-3 and the amorphous were used for the test. Approximately 1 g of test substance was weighed accurately and put it into a sample vial. After the test substance was allowed to stand in an opening constant temperature and humidity device under following condition, their differences of weights were measured.
Condition 1: Allowing to stand at 25° C. and 60% of relative humidity in the constant temperature and humidity device for 3 days
Condition 2: Allowing to stand at 40° C. and 75% of relative humidity in the constant temperature and humidity device for 3 days

[4] = Condition 1: 40° C. for 28 days
[5] = Condition 2: 60° C. for 28 days
[6] = Condition 3: 80° C. for 25 days
[7] = Condition 4: 40° C. and relative humidity 75% for 28 days
[8] = Initial, liquid chromatography, integral percentage method
[9] = Condition 1: 25° C. and 60% relative humidity for 3 days
[10] = Condition 2: 40° C. and 75% relative humidity for 3 days

Compound	Stability for light [1]	Appearance [2, 4]	Purity (%) [2, 4]	Appearance [2, 5]	Purity (%) [2, 5]	Appearance [2, 6]	Purity (%) [2, 6]	Appearance [2, 7]	Purity (%) [2, 7]	Appearance ([2]; Initial)	Purity (%) [2, 8]	Change(%) of weight [3, 9]	Change(%) of weight [3, 10]	Stability in respect of purity and appearance ([2]; listed as crystal form a)	Stability in respect of purity and appearance ([2]; listed as crystal form α)	Moisture absorption (hygroscopicity) [3]
C[C@H](Cc1cc2c(c(C(N)=O)c1)N(CCCO)CC2)NCCOc1ccccc1OCC(F)(F)F [KMD-3213]	unstable for light relatively	–	–	–	–	–	–	–	–	–	–	–	–	–	–	–
C[C@H](Cc1cc2c(c(C(N)=O)c1)N(CCCO)CC2)NCCOc1ccccc1OCC(F)(F)F [amorphous, KMD-3213]	–	White powder	99.66%	Pale yellow	99.56%	Pale yellowish	99.53%	White powder	99.71%	White powder	99.79%	+1.61%	+1.31%	–	–	–
C[C@H](Cc1cc2c(c(C(N)=O)c1)N(CCCO)CC2)NCCOc1ccccc1OCC(F)(F)F [α, KMD-3213]	–	White powder	99.84%	White powder	99.84%	Pale yellow	99.58%	White powder	99.85%	White powder	99.90%	−0.01%	−0.20%	extremely stable	the most stable	absorbing moisture scarcely
C[C@H](Cc1cc2c(c(C(N)=O)c1)N(CCCO)CC2)NCCOc1ccccc1OCC(F)(F)F [β, KMD-3213]	–	Pale yellow powder	99.73%	Pale yellowish	99.57%	Pale brown powder	98.42%	Pale yellow powder	99.69%	Pale yellow powder	99.83%	+0.07%	−0.08%	–	–	absorbing moisture scarcely
C[C@H](Cc1cc2c(c(C(N)=O)c1)N(CCCO)CC2)NCCOc1ccccc1OCC(F)(F)F [γ, KMD-3213]	–	Pale yellow powder	99.85%	Pale yellow powder	99.84%	Pale yellow powder	99.64%	Pale yellow powder	99.85%	Pale yellow powder	99.88%	0.00%	−0.19%	–	–	absorbing moisture scarcely
